{
  "source": "patent US4977276A",
  "about": "“Heteroarotinoids as anticancer agents” (The Board of Regents for the Oklahoma Agricultural and …, priority 1989, dated 1990)",
  "key": {"[1]": {"test_system": "ornithine decarboxylase (ODC)", "assay": "suppression of TPA induced ornithine decarboxylase (ODC) activity in mouse skin", "type": "in vivo", "conditions": "for % of Inhibition as Compared to Control: second table (60 min)", "description": "In the ODC assay, either 13-cis-retinoic acid or trans-retinoic acid was employed. The following Table summarizes the result of the ODC assays.\nEpidermus was separated, homogenized, and centrifuged at 30,000× g. Soluble epidermal ODC activity was assayed. The retinoids were evaluated in three independent experiments (3 groups of mice with 3 mice per group) and the results from the experiments were normalized (% inhibition) for comparison. […] Which standard is used appears to be relatively unimportant for determining activity in the assay, but the data presented in the Table identifies the standard for sake of clarity and accuracy of presentation. Thus, the presence of the heteroatom in these arotinoids has not eliminated biological activity. […] Consequently, the nature of the terminus group is also important."}, "[2]": {"test_system": "HT-29 (colon adenocarcinoma)", "assay": "Human Tumor Cell Line Bioassay (HTCL), HT-29", "type": "cell-based", "conditions": "HT-29, MTT, O.D. 50% of control", "description": "(§1) The Human Tumor Cell Line Bioassay (HTCL) has been conducted in a manner similar to the procedure described by Alley and co-workers (Cancer Research 1988, 48, 589-601). A panel of 4 tumor cell lines were grown in microliter plates and various concentrations of the test compounds were added to the wells. After 4 days, the number of viable cells were measured in terms of production of formazin after incubation with MTT [3-(4,5-dimethylthiazol-2-yl)-2,5-diphenyltetrazolium bromide]. Formazin production is directly proportional to the viable cell number/well and can be measured spectrophotometrically after solubilization.\nThe cell lines used in the HTCL assay were A-549 (lung adenocarcinoma), HT-29 (colon adenocarcinoma), MCF-7 (breast adenocarcinoma), and RPMI-7951 (melanoma). […] After detaching from the flask, the cells were resuspended in their appropriate medium, counted on a Coulter Counter (ZBI), and an aliquot was transferred to new T-25 flasks. […] The plates were read on a Dynatech 700 plate reader at 540 nm, and the data were collected on an IBM PC. The data were graphed and the ED50 was determined from the graph."}, "[3]": {"test_system": "RPMI-7951 (melanoma)", "assay": "Human Tumor Cell Line Bioassay (HTCL), RPMI-7951", "type": "cell-based", "parameters": "key to ED50 Values: NDT: No detectable toxicity", "conditions": "RPMI-7951, MTT, O.D. 50% of control; for IC50: Homo sapiens, read-out: ED50 Values", "description": "as §1\nThe cell lines used in the HTCL assay were A-549 (lung adenocarcinoma), HT-29 (colon adenocarcinoma), MCF-7 (breast adenocarcinoma), and RPMI-7951 (melanoma). With the exception of HT-29, these cells have been adopted to grow in B10 medium which consists of Eagle's Minimum Essential Medium supplemented with 1.5× the essential amino acids, 2× the non-essential amino acids, 1.5× vitamins, 1× L-glutamine, 10% calf bovine serum (CBS), and 1× antibiotic solution (PSF) consisting of 50 U/mL of penicillin, 50 ug/mL of streptomycin sulfate, and 50 ug/mL of amphotericin B. HT-29 cells were grown in McCoy's 5A medium supplemented with 10% CBS and 1× PSF. Stock cultures of cells were routinely grown in 25 cm^2 flasks (T-25) and passaged on a weekly basis. Cells were passaged by washing twice with phosphate buffered saline (PBS) and once with a 0.005% trypsin--0.01% EDTA solution. Trypsin-EDTA solution was added and the flask was allowed to incubate for 2-5 minutes until the cells were detached. After detaching from the flask, the cells were resuspended in their appropriate medium, counted on a Coulter Counter (ZBI), and an aliquot was transferred to new T-25 flasks. The remaining cells were used to set up the assay in 96 well microliter plates. Either 3,000 (HT-29, MCF-7) or 2,000 (A-549, RPMI-7951) cells were added to the wells in a 96-well microliter plate in 0.2 mL of medium (Day 1). On Day 2, the compounds were resuspended at 1 or 2 mg/mL in acetone, and the compounds were serially diluted 10 or 5 fold in PBS and 20 uL of each dilution starting at 100 or 200 ug/mL was added to 4 wells of the microliter plate. Doxyrubicin was used as a positive control compound. On Day 7, 20 uL of MTT (2 mg/mL) was added to each of the wells. The plates were then incubated at 37° C. for 4 hours. After incubation, the medium and MTT were removed by aspiration and 100 uL of DMSO was added to solubilize the formazin product. The plates were read on a Dynatech 700 plate reader at 540 nm, and the data were collected on an IBM PC. The data were graphed and the ED50 was determined from the graph."}, "[4]": {"test_system": "HL-60 cells", "assay": "induction of differentiation of human HL-60 promyelocytic cells (NBT reduction)", "type": "cell-based", "conditions": "HL-60, 96 h, read-out: concentration of retinoid effective in achieving a half-maximal response (ED50)", "description": "These mature cells, unlike the uninduced HL-60, produced superoxide anion when simulated with an appropriate agent, such as TPA. The ability of the individual cells to produce superoxide can be measured by incubating cells with the water-soluble yellow dye, nitroblue tetrazolium (NBT). NBT is reduced to a water-insoluble blue-black formazan by superoxide. This formazan precipitate is associated with those cells that produce superoxide. Thus, the percentage of cells in a population that produce superoxide (NBT-positive cells) can be enumerated under a light microscope.\nAfter incubation for 4 days at 37° C. in a humidified atmosphere of 5% CO2 and air, the capacity of the cells to reduce NBT was determined. […] This cell suspension was mixed with an equal volume of phosphate buffered saline containing 1 mg of NBT/mL and […]. The reaction mixture was incubated at 37° C. for 25 minutes, and the reaction was terminated by cooling in an ice water bath. Cytospin slides were prepared from a portion of this reaction mixture and stained with Wright-Giemsa. A minimum of 200 cells were counted under light microscopy to determine the percentage of cells with cell-associated formazan."}, "[5]": {"conditions": "in comparison with 13-cis-retinoic acid as the standard, or among the tested compounds"}, "[6]": {"conditions": "retinoid dose 17 nmol + TPA, first table, acetone + TPA control 0.90"}, "[7]": {"conditions": "incubation 4 days at 37° C., NBT-positive cells"}, "[8]": {"conditions": "retinoid dose 34 nmol + TPA, second table, acetone + TPA control 1.67"}, "[9]": {"conditions": "with trans-retinoic acid as the standard"}},
  "note": "Entries after “also recorded” stand apart in the source; their conditions may differ. Where two headings read alike, the source gives them in different places.",
  "data": [
    {"molecule": "CCOC(=O)/C=C(C)/C=C/C=C(\\C)c1ccc2c(c1)C(C)(C)CCS2", "note": "[(39), Ethyl 7-[4,4-Dimethylthiochroman-6-yl]-3,7-dimethyl-2,4,6-heptatrienoate]", "values": [
      {"measurement": "activity in the ODC assay in words", "setting": "[1]; [5]", "result": "strongest activity; also recorded: more active"},
      {"measurement": "ODC Activity", "setting": "[1]; [6]", "result": "0.0 ± 0.0 nmol CO2 /30 min/mg protein"}
    ]},
    {"molecule": "COc1cccc2c1C(=O)c1c(O)c3c(c(O)c1C2=O)C[C@@](O)(C(=O)CO)C[C@@H]3O[C@H]1C[C@H](N)[C@H](O)[C@H](C)O1", "note": "[Doxyrubicin]", "values": [
      {"measurement": "ED50 Values", "setting": "[2]; 5760 min", "result": 0.6, "unit": "µg/mL"},
      {"measurement": "IC50", "setting": "[2]; Homo sapiens, HT-29, 96 h, read-out: ED50 Values", "result": 0.3, "unit": "µg/mL"},
      {"measurement": "IC50", "setting": "[3]; RPMI-7951, 96 h", "result": 0.2, "unit": "µg/mL"},
      {"measurement": "ED50 Values", "setting": "[3]; 5760 min", "result": 0.1, "unit": "µg/mL"}
    ]},
    {"molecule": "CC(/C=C/C=C(\\C)c1ccc2c(c1)C(C)(C)CCS2)=C\\C(=O)O", "note": "[(38), 7-[4.4-Dimethylthiochroman-6-yl]-3,7-dimethyl-2,4,6-heptatrienoic acid]", "values": [
      {"measurement": "activity in the ODC assay in words", "setting": "[1]; [5]", "result": "essentially equivalent in activity to the standard"},
      {"measurement": "ODC Activity", "setting": "[1]; [6]", "result": "0.1 ± 0.01 nmol CO2 /30 min/mg protein"},
      {"measurement": "EC50", "setting": "[4]; [7]", "result": 72, "unit": "nM"}
    ]},
    {"molecule": "CC1=C(/C=C/C(C)=C/C=C/C(C)=C\\C(=O)O)C(C)(C)CCC1", "note": "[13-cis-retinoic acid, reference compound]", "values": [
      {"measurement": "ODC Activity", "setting": "[1]; [6]", "result": "0.1 ± 0.01 nmol CO2 /30 min/mg protein"},
      {"measurement": "% of Inhibition as Compared to Control", "setting": "[1]; retinoid dose 17 nmol + TPA", "result": 92, "unit": "%"},
      {"measurement": "ODC Activity", "setting": "[1]; retinoid dose 17 nmol + TPA, second table, acetone + TPA control 1.67", "result": "0.14 ± 0.04 nmol CO2 /60 min/mg protein"}
    ]},
    {"molecule": "CC(/C=C/C=C(\\C)c1ccc2c(c1)C(C)(C)CCS2)=C\\C(=O)OCCN1C(=O)c2ccccc2C1=O", "note": "[(40), (2-Phthalimide-ethyl) 7-[4,4-Dimethylthiochroman-6-yl]-3-7-dimethyl-2,4,6-heptatrienoate]", "values": [
      {"measurement": "% of Inhibition as Compared to Control", "setting": "[1]; retinoid dose 34 nmol + TPA", "result": 42, "unit": "%"},
      {"measurement": "ODC Activity", "setting": "[1]; [8]", "result": "0.97 ± 0.13 nmol CO2 /60 min/mg protein"},
      {"measurement": "activity in the ODC assay in words", "setting": "[1]; [9]", "result": "less active compared to the same control"}
    ]},
    {"molecule": "CC1=C(/C=C/C(C)=C/C=C/C(C)=C/C(=O)O)C(C)(C)CCC1", "note": "[trans-retinoic acid]", "values": [
      {"measurement": "EC50", "setting": "[4]", "result": 41, "unit": "nM"},
      {"measurement": "IC50", "setting": "[3]; 96 h", "result": 30, "unit": "µg/mL"},
      {"measurement": "ED50 Values", "setting": "[3]", "result": "NDT"}
    ]},
    {"molecule": "CC(/C=C/C=C(\\C)c1ccc2c(c1)C(C)(C)CCO2)=C\\C(=O)O", "note": "[(47), 7-[4,4-Dimethylchroman-6-yl]-3,7-dimethyl-2,4,6-heptatrienoic acid]", "values": [
      {"measurement": "% of Inhibition as Compared to Control", "setting": "[1]; retinoid dose 34 nmol + TPA", "result": 74, "unit": "%"},
      {"measurement": "ODC Activity", "setting": "[1]; [8]", "result": "1.4 ± 0.2 nmol CO2 /60 min/mg protein"},
      {"measurement": "activity in the ODC assay in words", "setting": "[1]; [9]", "result": "slightly less active than the standard"},
      {"measurement": "EC50", "setting": "[4]; [7]", "result": 200, "unit": "nM"}
    ]}
  ]
}
